Assays:
[1] = tested on: DEN-induced liver tumor; assay: N-diethylnitrosamine-induced hepatocarcinoma mouse model; format: in vivo, mice; conditions: 30 mg/kg daily for 2 months
Method: After weighing, 38 male C3/H mice received a 10 mg/kg dose of N-diethylnitrosamine (DEN) intraperitoneally, whereas a group of 5 animals was kept without DEN injection as control group. After 12 months, mice that received DEN injection were randomized by weight in two groups of each 19 animals. The mice were dosed daily orally for 2 months either with EVT801 or vehicle. On the day of termination, mice treated with EVT801 received a last dose of 30 mg/kg to take blood and tumor samples for compound concentration determination. After incision of the peritoneal cavity, blood was taken from the vena cava. Following excision and weighing of the liver, the number of tumors per liver was counted. The tumor burden was calculated as the sum of individual tumor volumes for each mouse. No blood sampling was performed on control and vehicle groups. Plasma and tumor samples were stored at −20°C until analysis. Concentration of EVT801 was determined by LC/MS-MS.

[2] = Blood pressure in telemetered rat model of hypertension; format: in vivo; conditions: single oral administration of 10, 30 or 100 mg/kg
Method: Supplementary Figure 8. EVT801 and sorafenib show opposing effects on blood pressure in rats. (A) Monitoring of the blood pressure over 24 h after single oral administration of 100 mg/kg EVT801 or 500 mg/kg of EVT801, compared to animals treated with vehicle. (B) Monitoring of the blood pressure over 24 h after single oral administration of 10 mg/kg sorafenib, 30 mg/kg sorafenib or 100 mg/kg of sorafenib, compared to animals treated with vehicle.

[3] = tested on: RT-HAM-001 tumors; assay: RT-001-HAM subcutaneous patient-derived xenograft tumor mouse model; format: in vivo, mice; conditions: 30 mg/kg twice per day, 7-day treatment
Method: Patient-derived tumors of the same passage were transplanted subcutaneously outbred athymic (nu/nu) female HSD mice. When tumor volume reached 726 to 1,437 mm^3, 4 donor mice were sacrificed by cervical dislocation, and tumors were aseptically excised and dissected. After removing necrotic areas, tumor fragments of approximately 20 mm^3 were transferred to culture medium before grafting. A total of 108 mice were anesthetized with 100 mg/kg ketamine hydrochloride (Virbac) and 10 mg/kg xylazine (Bayer). Then, a tumor fragment was placed in the subcutaneous tissue of an incision at the level of the interscapular region as described previously ([30]). All mice from the same experiment were implanted on the same day. A total of 54 mice with RT-001-HAM established growing tumor (P6.0.0/0) between 62.5 and 196 mm^3 were allocated according to tumor volume, ensuring homogenous median and mean tumor volume in each treatment arm. Treatments with 5 mL/kg vehicle, 30 mg/kg EVT801, or 30 mg/kg pazopanib started 15 days after tumor implantation and continued twice per day until termination 7 days later. Tumor volumes were measured via a caliper three times a week during the treatment period. All animals were weighed at the same time as tumor size measurement. Plasma and fresh tumor samples were collected at different timepoints after final dose at day 7 from all mice.

[4] = tested on: NCI-H1703 tumor xenografts; assay: NCI-H1703 subcutaneous xenograft tumor mouse model; format: in vivo, mice; conditions: 30 mg/kg twice per day
Method: A total number of 40 homozygous NOD.CB17 Prkdc^scid/NCrHsd mice were used for the xenograft tumor model. On the day of implantation, NCI-H1703 cells were harvested and suspended at a concentration of 1 × 10^8 cells per mL in an equal mix of Cultrex:RPMI without supplements. A volume of 100 μL was injected into the right hind flank of each animal. Tumor volumes were monitored until mean tumor volume reached 150 mm^3. Then, mice were stratified into four treatment groups of each 10 mice and orally dosed twice per day with either EVT801 30 mg/kg and EVT801 vehicle [Soluplus (BASF)/water/hydroxypropylcellulose SL (Nisso America)], or 30 mk/kg pazopanib and pazopanib vehicle (0.5% Hydroxypropyl methylcellulose trimellitate (HPMCT) + 0.1% Tween-80). A period of 8 hours was observed between the first and second daily dose.

[5] = tested on: NCI-H1703 cells; assay: NCI-H1703 viability (ATP reduction); format: cell-based; conditions: Homo sapiens, in vitro
Method: NCI-H1703 were seeded in 96-well plates coated with 0.3 % gelatin (5 x 10^3 cells per well) and were incubated in RPMI 0.1 % FCS with VEGF-C (300 ng/mL) or VEGF-D (300 ng/mL) in the absence or presence of increasing doses of EVT801. After 5 days, viable cells were quantified with the cell Titer-glo luminescent cell viability assay (Promega) as previously described (1).

[6] = tested on: hLMVEC; assay: Growth factor-induced hLMVEC proliferation; format: cell-based, human; conditions: stimulation by the ligand
Method: hLMVEC were seeded in white cell culture-treated flat and clear bottom multi-well plates and incubated at 37 °C overnight, before compounds were added. After incubation for 72 h at 37 °C, plates were equilibrated to ambient temperature for 1 h, and CellTiterGlo reagent (Promega) was added. After approximately 1h, luminescence was measured using a luminometer. Curves were fitted via sigmoidal dose response curves, and IC50 values were determined.

For `CNC(=O)c1cc(Oc2ccc(NC(=O)Nc3ccc(Cl)c(C(F)(F)F)c3)cc2)ccn1` [sorafenib, reference compound], the “T/C ratio, tumor growth” value [1] was 32%, the liver weight [1] was “reduced liver weight” and the “effect on blood pressure” value [2] was “showed the opposite effect”.

With `Cc1ccc(Nc2nccc(N(C)c3ccc4c(C)n(C)nc4c3)n2)cc1S(N)(=O)=O` [pazopanib, reference compound] the “T/C ratio, tumor volume” value [3] was 77%, the “size of necrotic areas in tumors” value [3] was “remained unaffected” and the “hypoxic areas (CAIX) in tumors” value ([3]; not statistically significant) was “showed opposing effects”. The “CD31 IHC, tumor vessels” value [4] was “decreased the number of vessels while increasing the proportion of larger ones”, the “decrease of tumor weight compared with vehicle” value ([4]; endpoint) was 56% and the “T/C ratio, tumor growth” value ([4]; oral, vs corresponding vehicle) was 53%. The IC50 [5] was 90 nM.

B1: VEGF-C: VEGFR-3 ligand (protein, UniProt P49767 112-227, looked up)
Vascular endothelial growth …: AHYNTEILKSIDNEWRKTQCMPREVCIDVGKEFGVATNTFFKPPCVSVYRCGGCCNSEGLQCMNTSTSYLSKTLFEITVPLSQGPKPVTISFANHTSCRCMSKLDVYRQVHSIIRR
With B1 the “increase in hLMVEC proliferation” value [6] was 50%.

B2: VEGF-D: VEGFR-3 ligand (protein, UniProt O43915 89-205, looked up)
Vascular endothelial growth …: FAATFYDIETLKVIDEEWQRTQCSPRETCVEVASELGKSTNTFFKPPCVNVFRCGGCCNEESLICMNTSTSYISKQLFEISVPLTSVPELVPVKVANHTGCKCLPTAPRHPYSIIRR
For B2, the “increase in hLMVEC proliferation” value [6] was 34%.

— paper PMC10035370, “Targeting Tumor Angiogenesis with the Selective VEGFR-3 Inhibitor EVT801 in Combination with Cancer Immunotherapy” (Cancer Research Communications, 2022)
